Test results published in US9237744B2, “Preservative solution for cells, tissues and organs containing rare sugar and preservative method thereof” (NATIONAL UNIVERSITY CORPORATION KAGAWA UNIVERSITY, priority 2004, dated 2016).

Key:
[1] = test system: Hela, OVCAR-3, HaCaT, HFB and NIH3T3 cells; test: Survival rate of cells after freeze-preservation at high sugar concentration, trypan blue (Example 2); type: cell-based, human, mouse; conditions: sugar-containing medium in comparison with medium alone (FIG. 7)
Procedure: 1. Cells used: Hela (human cervical cancer), OVCAR-3 (human ovarian cancer), HaCaT (human skin keratinocyte), HFB (human fibroblast) and NIH3T3 (mouse fibroblast). Saccharides D-allose and the like were added to culture medium, Cell Banker (commercially available preservative solution) and DMSO at concentrations of 0.2, 0.4, 0.6, 0.8 and 1M. Monosaccharides such as D-glucose, D-fructose, D-mannose and D-galactose which are present in nature in large quantities and D-allose, D-altrose, D-psicose, L-psicose, D-sorbose, L-sorbose, D-tagatose, L-tagatose and L-fructose as rare sugars were used. Further, trehalose as disaccharide was used. The cells frozen with D-allose were freeze-preserved at −80° C. and in liquid nitrogen for 24 hours, 1 week and 4 weeks. 1) Survival rate of cells: The cells were thawed, and the survival rate was estimated by a trypan blue dying method.

HFB (human fibroblast) = test: Cell growth after thawing of freeze-preserved cells, MTT assay (Example 1); type: cell-based; conditions: culture medium plus sugar, in comparison with other cases (FIG. 2)
Procedure: (§1) 1. Cells used: Hela (human cervical cancer), OVCAR-3 (human ovarian cancer), HuH-7 (human liver cancer), HaCaT (human skin keratinocyte), HFB (human fibroblast) and NIH3T3 (mouse fibroblast). Saccharides D-allose and the like were added to culture medium, Cell Banker (commercially available preservative solution) and DMSO at concentrations of 25 mM and 50 mM. Monosaccharides such as D-glucose, D-fructose, D-mannose and D-galactose which are present in nature in large quantities and D-allose, D-psicose, D-altrose, allitol, D-talitol and L-sorbose as rare sugars were used. Further, trehalose as disaccharide was used. The cells were preserved for 24 hours by being frozen at −80° C. 2) Cell growth: One day later, the cells were thawed, and 0.25˜2×10^4 cells/well were spread on 96-well plate with 0.1 mL medium. After a prescribed period of time, the cell growth was measured by MTT assay.

[2] = test system: Hela, OVCAR-3, HaCaT, HFB and NIH3T3 cells; test: Cell growth after thawing of cells freeze-preserved at optimum concentrations, MTT assay (Example 2); type: cell-based, human, mouse; conditions: freeze-preserved 24 hours at optimum concentration, versus other cases (FIG. 8)
Procedure: 1. Cells used: Hela (human cervical cancer), OVCAR-3 (human ovarian cancer), HaCaT (human skin keratinocyte), HFB (human fibroblast) and NIH3T3 (mouse fibroblast). Saccharides D-allose and the like were added to culture medium, Cell Banker (commercially available preservative solution) and DMSO at concentrations of 0.2, 0.4, 0.6, 0.8 and 1M. Monosaccharides such as D-glucose, D-fructose, D-mannose and D-galactose which are present in nature in large quantities and D-allose, D-altrose, D-psicose, L-psicose, D-sorbose, L-sorbose, D-tagatose, L-tagatose and L-fructose as rare sugars were used. Further, trehalose as disaccharide was used. The cells frozen with D-allose were freeze-preserved at −80° C. and in liquid nitrogen for 24 hours, 1 week and 4 weeks. 2) Cell growth: The cells were freeze-preserved with D-allose and trehalose at optimum concentrations for 24 hours, thawed, and spread on a 96-well plate such that the concentration was 0.5-1×10^4 cells/well/0.1 ml. After a prescribed period of time, the cell growth was measured by MTT assay.

[3] = test system: HFB cells and NIH3T3 cells; test: Proliferation ability after freeze-preservation with Cell Banker containing rare sugar (Example 1); type: cell-based, human, mouse; conditions: sugar added to Cell Banker, versus Cell Banker alone (FIG. 3)
Procedure: as §1, with “assay. 3) Then, the rare sugar was added to Cell Banker which was widely used for freeze-preservation of cells, and an effect of preservability was comparatively studied.” for “assay.”

SMILES: OC[C@H]1O[C@H](O[C@H]2O[C@H](CO)[C@@H](O)[C@H](O)[C@H]2O)[C@H](O)[C@@H](O)[C@@H]1O [trehalose, reference compound]
- number of cells survived (trypan blue dying) [1]: the same
- growth rate of cells after thawing (HFB (human fibroblast)): nearly the same effect was obtained
- growth rate of cells after thawing [2]: nearly the same effect was obtained
- proliferation ability after freeze-preservation [3]: nearly the same effect was obtained
